{"source": "patent US6809101B2", "about": "“Compounds having anti-hepatitis C virus effect” (priority 2000, dated 2004)", "key": {"[1]": {"biological_target": "T1, RNA-dependent RNA polymerase (RdRp) of bovine virus diarrhea virus (BVDV) (Bovine viral diarrhea virus, UniProt P19711)", "T1 construct": "RNA-dependent RNA polymerase (RdRp) of bovine virus diarrhea virus (BVDV)", "T1 sequence (P19711 3270-3988)": "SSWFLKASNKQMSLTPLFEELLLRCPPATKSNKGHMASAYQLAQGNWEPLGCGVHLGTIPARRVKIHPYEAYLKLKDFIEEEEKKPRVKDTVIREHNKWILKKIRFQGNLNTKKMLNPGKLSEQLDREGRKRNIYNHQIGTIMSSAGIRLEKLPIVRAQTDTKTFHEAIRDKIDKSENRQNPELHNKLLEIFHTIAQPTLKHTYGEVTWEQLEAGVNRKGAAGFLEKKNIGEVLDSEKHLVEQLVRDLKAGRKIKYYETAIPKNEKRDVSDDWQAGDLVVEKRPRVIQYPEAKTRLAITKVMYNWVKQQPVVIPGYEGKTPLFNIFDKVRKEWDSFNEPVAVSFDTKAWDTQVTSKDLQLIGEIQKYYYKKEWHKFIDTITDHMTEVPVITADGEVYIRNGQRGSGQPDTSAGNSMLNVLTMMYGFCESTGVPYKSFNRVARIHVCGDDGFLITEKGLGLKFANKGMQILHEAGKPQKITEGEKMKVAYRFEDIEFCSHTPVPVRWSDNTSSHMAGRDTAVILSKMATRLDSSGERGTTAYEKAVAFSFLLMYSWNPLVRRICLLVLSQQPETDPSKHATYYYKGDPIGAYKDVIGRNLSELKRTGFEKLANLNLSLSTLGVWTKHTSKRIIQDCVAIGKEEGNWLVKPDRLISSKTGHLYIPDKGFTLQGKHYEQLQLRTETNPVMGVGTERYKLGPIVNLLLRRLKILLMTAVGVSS", "assay": "Inhibitory activity against BVDV RNA-dependent RNA polymerase (Experiment Example 2)", "type": "biochemical", "conditions": "Experimental example 2; same way as experiment example 1", "from_the_text": "Inhibitory Activity Against BVDV RNA-Dependent RNA Polymerase\nInhibitory activity against RNA-dependent RNA polymerase (RdRp) of bovine virus diarrhea virus (BVDV) was experimented too in the same way in experiment example 1."}, "[2]": {"biological_target": "HCV RNA-dependent RNA polymerase (UniProt P27958)", "assay": "Inhibitory activity against HCV RNA-dependent RNA polymerase (Experiment Example 1)", "type": "biochemical, hepatitis C virus (HCV)", "conditions": "Experimental example 1, poly(A) template, oligo(U)12 primer, 3H-UTP substrate, enzyme reaction 25° C. for 30 min", "from_the_text": "Inhibitory Activity Against HCV RNA-Dependent RNA Polymerase\n(1) Preparation of Hepatitis C Virus (HCV) RNA-Dependent RNA Polymerase\nIt was collected several cDNA clones of HCV RNA-dependent RNA polymerase from plasma of people infected with HCV, RNA-dependent RNA polymerase was expressed by using insect cell or E. coli from these clones. RNA-dependent RNA polymerase in cell extract was purified by anion-exchange chromatography, heparin-affinity chromatography, poly U-affinity chromatography, cation-exchange chromatography, gel filtration chromatography, and the like. The preparation was done at about 4° C. under low temperature condition, as solution dissolving enzyme was used Tris buffer (pH 7.5) containing ethylenediamine tetraacetic acid (1 mM), dithiothreitol (10 mM), and glycerol (20%). The purified enzyme was kept at 4° C. or −20° C. until it was used for assay.\n(2) Method of HCV RNA-Dependent RNA Polymerase Assay\n(1) In polypropylene vessel was added buffer I*^1)(10.5 μL) containing Tris-HCl (100 mM, pH 7.5), magnesium chloride (25 mM), dithiothreitol (5 mM), potassium chloride (125 mM), ethylenediamine tetraacetic acid (5 mM), and then were added poly(A)*^2) aqueous solution (100 μg/mL, 10.5 μL), oligo(U)12*^3) aqueous solution (10 μg/mL, 10.5 μL), and water (8 μL), and the mixture was mixed slowly.\n*1) All of water used as experimental material in enzyme reaction were carried out inactivation treatment of Rnase with diethylpyrocarbonate. The inactivation treatment with diethylpyrocarbonate was carried out as follows, 1) diethylpyrocarbonate (0.1 g) was dissolved in de-ionized water (100 mL), 2) the solution was stood at 37° C. for 24 h, 3) kept in autoclave at 120° C. for 30 min.\n*2) Poly(A) is single strand polynucleotide composed with only adenylic acid. It was used as template.\n*3) Oligo(U)12 is single strand oligonucleotide composed with only 12 element of uridylic acid. It was used as primer.\n(2) Next, to the mixture was added a solution (10.5 μL) of RNA-dependent RNA polymerase, and preincubation was carried out at 25° C. for 60 min.\n(3) A solution (50 μL) preincubated described in (2) was added into 96-wells microtiter plate divided test compound (5.26 μL per well) dissolved with dimethylsulfoxide or water.\n*4) UTP is uridine triphosphate. It was used as substrate.\n(5) When the enzyme reaction was passed for 30 min, to the mixture was added a aqueous solution (50 mM, 50 μL) of ethylenediamine tetraacetic acid disodium and the enzyme reaction was stopped.\n(6) Next, after all volume of sample of (5) was transferred on filter introduced diethylaminoethyl group (henceforth shortening as DEAE-filter mat) by using cell harvester, was carried the washing twice with sodium phosphate buffer (0.25 M, pH 7.0) for 10 sec and the washing once with deionized water for 10 sec.\n(7) After the washing, DEAE-filter mat was dried at 95° C. for 15 min and sealed together with liquid scintillator (10 mL) into sample bag.\n(8) Radioactivity was measured by using scintillation counter.\n(9) The percentage of inhibition was calculated by replacing the measured value of radioactivity (unit; ccpm) into the following expression.\nThe percentage of inhibition=100−(the measured value in presence of test compound−the measured value in absence of enzyme)÷(the measured value in absence of test compound−the measured value in absence of enzyme)×100.\n(10) The concentration of test compound inhibiting 50% (IC50) was obtained from the percentage of inhibition calculated in (9) and the used concentration of test compound inhibiting.\nIn case of the percentage of inhibition is A % when α μg/mL of the compound is used and the percentage of inhibition is B % when β μg/ml of the compound is used, IC50 was obtained from the following expression. Provided that it is theorized as A≧50>B. […]"}, "[3]": {"conditions": "read-out: IC50 for HCV RdRp (converted)"}}, "note": "Where two headings read alike, the source gives them in different places."}
{"smiles": "Cc1nnc(C(O)=C2SC(=S)NC2=O)o1", "note": "[Compound I-40, 5-[1-Hydroxy-1-(5-methyl-1,3,4-oxadiazol-2-yl)]methylene-2-thioxothiazolidin-4-one]", "values": [{"measurement": "IC50", "setting": "[1]", "result": 21.8, "unit": "µM"}, {"measurement": "IC50", "setting": "[2]; [3]", "result": 8.22, "unit": "µM"}, {"measurement": "melting point", "result": "230 to 237 °C (dec.)"}]}
{"smiles": "O=C1NC(=S)S/C1=C(/O)c1ccco1", "note": "[Compound I-2, 5-[1-(Furan-2-yl)-1-hydroxy]methylene-2-thioxothiazolidin-4-one]", "values": [{"measurement": "IC50", "setting": "[1]", "result": 79.2, "unit": "µM"}, {"measurement": "IC50", "setting": "[2]; [3]", "result": 3.96, "unit": "µM"}, {"measurement": "melting point", "result": "230 to 235 °C (dec.)"}]}
{"smiles": "Cc1ccc(C(O)=C2SC(=S)NC2=O)o1", "note": "[Compound I-22, 5-[1-Hydroxy-1-(5-methylfuran-2-yl)]methylene-2-thioxothiazolidin-4-one]", "values": [{"measurement": "IC50", "setting": "[1]", "result": 153, "unit": "µM"}, {"measurement": "IC50", "setting": "[2]; [3]", "result": 20.3, "unit": "µM"}, {"measurement": "melting point", "result": "195 to 198 °C (dec.)"}]}
{"smiles": "O=C1NC(=S)SC1=C(O)c1nn[nH]n1", "note": "[Compound I-32, 5-[1-Hydroxy-1-(2H-tetrazol-5-yl)]methylene-2-thioxothiazolidin-4-one]", "values": [{"measurement": "IC50", "setting": "[1]", "result": 161, "unit": "µM"}, {"measurement": "IC50", "setting": "[2]; [3]", "result": 14, "unit": "µM"}, {"measurement": "melting point", "result": "188 to 193 °C (dec.)"}]}
{"smiles": "O=C1NC(=S)SC1=C(O)c1ccno1", "note": "[Compound I-30, 5-[1-(Isoxazol-5-yl)1-hydroxy]methylene-2-thioxothiazolidin-4-one]", "values": [{"measurement": "IC50", "setting": "[1]", "result": 140, "unit": "µM"}, {"measurement": "IC50", "setting": "[2]; [3]", "result": 29.8, "unit": "µM"}, {"measurement": "melting point", "result": "195 to 202 °C (dec.)"}]}
{"smiles": "O=C1NC(=S)SC1=C(O)c1cnccn1", "note": "[Compound I-36, 5-[1-Hydroxy-1-(pyrazin-2-yl)]methylene-2-thioxothiazolidin-4-one]", "values": [{"measurement": "IC50", "setting": "[1]", "result": 159, "unit": "µM"}, {"measurement": "IC50", "setting": "[2]; [3]", "result": 31.8, "unit": "µM"}, {"measurement": "melting point", "result": "> 250 °C (dec.)"}]}
{"smiles": "O=C1NC(=S)SC1=C(O)c1ccon1", "note": "[Compound I-29, 5-[1-(Isoxazol-3-yl)1-hydroxy]methylene-2-thioxothiazolidin-4-one]", "values": [{"measurement": "IC50", "setting": "[1]", "result": 118, "unit": "µM"}, {"measurement": "IC50", "setting": "[2]; [3]", "result": 7.89, "unit": "µM"}, {"measurement": "melting point", "result": "210 to 215 °C (dec.)"}]}
{"smiles": "O=C1NC(=S)SC1=C(O)c1ccccn1", "note": "[Compound I-37, 5-[1-Hydroxy-1-(pyridin-2-yl)]methylene-2-thioxothiazolidin-4-one]", "values": [{"measurement": "IC50", "setting": "[1]", "result": 151, "unit": "µM"}, {"measurement": "IC50", "setting": "[2]; [3]", "result": 12.6, "unit": "µM"}, {"measurement": "melting point", "result": "> 250 °C (dec.)"}]}
{"smiles": "O=C1NC(=S)SC1=C(O)c1ncccn1", "note": "[Compound I-35, 5-[1-Hydroxy-1-(pyrimidin-2-yl)]methylene-2-thioxothiazolidin-4-one]", "values": [{"measurement": "IC50", "setting": "[1]", "result": 142, "unit": "µM"}, {"measurement": "IC50", "setting": "[2]; [3]", "result": 5.85, "unit": "µM"}, {"measurement": "melting point", "result": "> 250 °C (dec.)"}]}
{"smiles": "Cc1cnc(/C(O)=C2\\SC(=S)NC2=O)o1", "note": "[Compound I-1, 5-[1-Hydroxy-1-(5-methyloxazol-2-yl)]methylene-2-thioxothiazolidin-4-one]", "values": [{"measurement": "IC50", "setting": "[1]", "result": 10.3, "unit": "µM"}, {"measurement": "IC50", "setting": "[2]; read-out: IC50 for HCV RdRp", "result": 1.03, "unit": "µM"}, {"measurement": "melting point", "result": "243 to 245 °C (dec.)"}]}
{"smiles": "Cc1cnoc1C(O)=C1SC(=S)NC1=O", "note": "[Compound I-27, 5-[1-Hydroxy-1-(4-methylisoxazol-5-yl)]methylene-2-thioxothiazolidin-4-one]", "values": [{"measurement": "IC50", "setting": "[1]", "result": 74.3, "unit": "µM"}, {"measurement": "IC50", "setting": "[2]; [3]", "result": 6.6, "unit": "µM"}, {"measurement": "melting point", "result": "230 to 234 °C (dec.)"}]}
{"smiles": "O=C1NC(=S)SC1=C(O)c1nc[nH]n1", "note": "[Compound I-34, 5-[1-Hydroxy-1-(1H-1,2,4-triazol-3-yl)]methylene-2-thioxothiazolidin-4-one]", "values": [{"measurement": "IC50", "setting": "[1]", "result": 61.3, "unit": "µM"}, {"measurement": "IC50", "setting": "[2]; [3]", "result": 4.03, "unit": "µM"}, {"measurement": "melting point", "result": "285 to 290 °C (dec.)"}]}
